As usually defined, the pIC50 is the negative decadic logarithm of the IC50, by convention in mol/L.

pIC50: −log10 of the molar value. Where a name gives a salt, the structure may show the parent alone.

T1 sequence (O95180 whole entry): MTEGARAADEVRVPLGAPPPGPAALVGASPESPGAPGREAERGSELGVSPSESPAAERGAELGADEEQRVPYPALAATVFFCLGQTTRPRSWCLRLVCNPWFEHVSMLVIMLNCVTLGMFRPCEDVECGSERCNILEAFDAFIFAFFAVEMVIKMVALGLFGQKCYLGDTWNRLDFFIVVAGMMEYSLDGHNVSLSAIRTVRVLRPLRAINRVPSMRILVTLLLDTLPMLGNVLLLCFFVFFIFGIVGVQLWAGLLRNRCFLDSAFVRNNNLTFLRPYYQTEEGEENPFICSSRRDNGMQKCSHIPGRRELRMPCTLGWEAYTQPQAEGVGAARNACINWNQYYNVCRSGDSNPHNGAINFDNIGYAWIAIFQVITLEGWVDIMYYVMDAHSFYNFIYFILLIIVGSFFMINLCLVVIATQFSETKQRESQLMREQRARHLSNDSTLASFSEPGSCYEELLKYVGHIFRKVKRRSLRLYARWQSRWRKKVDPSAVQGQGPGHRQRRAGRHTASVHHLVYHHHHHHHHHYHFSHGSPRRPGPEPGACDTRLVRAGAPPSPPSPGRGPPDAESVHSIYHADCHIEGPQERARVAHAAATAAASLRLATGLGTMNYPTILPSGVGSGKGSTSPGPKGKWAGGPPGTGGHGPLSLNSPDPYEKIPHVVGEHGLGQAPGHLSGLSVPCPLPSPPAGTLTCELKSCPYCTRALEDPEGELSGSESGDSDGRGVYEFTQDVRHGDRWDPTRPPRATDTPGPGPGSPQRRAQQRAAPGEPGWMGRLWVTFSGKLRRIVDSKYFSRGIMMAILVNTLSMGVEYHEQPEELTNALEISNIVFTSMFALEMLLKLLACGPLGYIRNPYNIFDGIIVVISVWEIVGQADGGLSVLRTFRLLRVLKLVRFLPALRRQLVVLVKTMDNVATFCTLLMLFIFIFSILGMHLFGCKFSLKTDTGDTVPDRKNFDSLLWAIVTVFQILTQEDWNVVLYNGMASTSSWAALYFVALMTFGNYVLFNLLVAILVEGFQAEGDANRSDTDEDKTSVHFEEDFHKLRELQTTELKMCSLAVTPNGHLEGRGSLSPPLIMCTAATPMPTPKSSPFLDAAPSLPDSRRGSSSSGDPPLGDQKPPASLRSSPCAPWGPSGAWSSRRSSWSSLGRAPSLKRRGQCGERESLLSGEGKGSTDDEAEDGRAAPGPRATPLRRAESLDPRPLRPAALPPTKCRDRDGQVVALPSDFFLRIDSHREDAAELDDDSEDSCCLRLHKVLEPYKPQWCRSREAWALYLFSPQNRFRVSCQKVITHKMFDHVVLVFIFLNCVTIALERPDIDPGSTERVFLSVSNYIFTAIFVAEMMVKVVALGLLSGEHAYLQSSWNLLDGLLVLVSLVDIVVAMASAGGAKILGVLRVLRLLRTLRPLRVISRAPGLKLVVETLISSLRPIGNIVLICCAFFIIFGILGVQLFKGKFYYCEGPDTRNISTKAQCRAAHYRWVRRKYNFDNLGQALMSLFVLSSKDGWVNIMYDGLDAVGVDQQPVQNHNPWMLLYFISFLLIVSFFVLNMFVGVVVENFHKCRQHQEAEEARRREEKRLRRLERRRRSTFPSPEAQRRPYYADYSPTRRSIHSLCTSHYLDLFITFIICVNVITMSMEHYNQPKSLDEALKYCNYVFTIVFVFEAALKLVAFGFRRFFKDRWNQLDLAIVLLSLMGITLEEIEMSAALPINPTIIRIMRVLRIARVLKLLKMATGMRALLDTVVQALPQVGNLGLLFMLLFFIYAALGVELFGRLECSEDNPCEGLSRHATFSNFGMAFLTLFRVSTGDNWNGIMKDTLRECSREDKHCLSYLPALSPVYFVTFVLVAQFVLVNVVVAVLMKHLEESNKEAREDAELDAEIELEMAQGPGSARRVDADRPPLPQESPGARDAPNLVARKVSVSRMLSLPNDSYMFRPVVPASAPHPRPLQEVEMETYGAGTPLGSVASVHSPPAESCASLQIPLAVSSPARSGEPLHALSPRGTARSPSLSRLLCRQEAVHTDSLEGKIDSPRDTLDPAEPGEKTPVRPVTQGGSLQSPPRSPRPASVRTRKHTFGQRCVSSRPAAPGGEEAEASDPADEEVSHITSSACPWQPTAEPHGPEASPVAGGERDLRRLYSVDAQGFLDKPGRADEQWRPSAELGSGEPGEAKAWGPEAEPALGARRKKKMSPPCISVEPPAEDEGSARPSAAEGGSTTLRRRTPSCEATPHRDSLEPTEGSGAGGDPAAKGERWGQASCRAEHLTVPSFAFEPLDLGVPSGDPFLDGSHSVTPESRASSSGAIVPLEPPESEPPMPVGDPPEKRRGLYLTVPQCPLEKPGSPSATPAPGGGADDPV

The first test addresses T1, human Cav3.2 T-type Ca2+ channel (Homo sapiens, UniProt O95180).
T1 construct: expressed in transfected cells; host or cells: KJMGER8 cells (Namalwa cell-derived cell line)
Nature of the test: Inhibitory effect for intracellular calcium response via Cav3.2 T-type Ca2+ channels (FLIPR Calcium 3 Assay Kit). The test is classed as cell-based.
Conditions: not given
(Calcium assays in cells follow changes in intracellular calcium, usually with a dye or a luminescent sensor.)
Turning to `O=C(NNC(=O)C1CC1)c1cc(Cl)n2c(CC3CCC(F)(F)CC3)c(C(F)(F)F)nc2c1` [Compound 142, 5-Chloro-N′-(cyclopropanecarbonyl)-3-[(4,4-difluorocyclohexyl)methyl]-2-(trifluoromethyl)imidazo[1,2-a]pyridine-7-carbohydrazide], the pIC50 is not below 7.00.

For `O=C(CC1CCOCC1)NNC(=O)c1cc(Cl)n2c(CC3CCC(F)(F)CC3)c(C(F)(F)F)nc2c1` [Compound 143, 5-Chloro-3-[(4,4-difluorocyclohexyl)methyl]-N′-[2-(tetrahydro-2H-pyran-4-yl)acetyl]-2-(trifluoromethyl)imidazo[1,2-a]pyridine-7-carbohydrazide], the pIC50 is not below 7.00.

For `CCCCc1c(C(C)C)nc2cc(C(=O)Nc3ccccc3)ccn12` [Compound 144, 3-Butyl-2-isopropyl-N-phenylimidazo[1,2-a]pyridine-7-carboxamide], the pIC50 was not below 7.00. As for `Cc1cc(C(=O)NC2CC3(COC3)C2)cc2nc(C(C)C)c(CC3CCC(F)(F)CC3)n12` [Compound 145, 3-[(4,4-Difluorocyclohexyl)methyl]-2-isopropyl-5-methyl-N-(2-oxaspiro[3.3]heptan-6-yl)imidazo[1,2-a]pyridine-7-carboxamide], the pIC50 is not below 7.00.

For `CC(F)(F)c1nc2cc(C(=O)NC3CC4(COC4)C3)c(Cl)cn2c1CC1CCC(F)(F)CC1` [Compound 147, 6-Chloro-3-[(4,4-difluorocyclohexyl)methyl]-2-(1,1-difluoroethyl)-N-(2-oxaspiro[3.3]heptan-6-yl)imidazo[1,2-a]pyridine-7-carboxamide], the pIC50 is not below 7.00.

Consider `CC(C)(C)c1nc2cc(C(=O)NC3CC4(COC4)C3)c(Cl)cn2c1CC1CCC(F)(F)CC1` [Compound 148, 2-tert-Butyl-6-chloro-3-[(4,4-difluorocyclohexyl)methyl]-N-(2-oxaspiro[3.3]heptane-6-yl)imidazo[1,2-a]pyridine-7-carboxamide], for which the pIC50 is not below 7.00. On to `O=C(CNC(=O)c1cc(Cl)n2c(CC3CCC(F)(F)CC3)c(C(F)(F)F)nc2c1)Nc1ccccc1` [Compound 151, 5-Chloro-3-[(4,4-difluorocyclohexyl)methyl]-N-[2-oxo-2-(phenylamino)ethyl]-2-(trifluoromethyl)imidazo[1,2-a]pyridine-7-carboxamide], for which the pIC50 was not below 7.00. For `CC(C)(CO)CNC(=O)c1cc(C#N)n2c(CC3CCC(F)(F)CC3)c(C(F)(F)F)nc2c1` [Compound 155, 5-Cyano-3-[(4,4-difluorocyclohexyl)methyl]-N-(3-hydroxy-2,2-dimethylpropyl)-2-(trifluoromethyl)imidazo[1,2-a]pyridine-7-carboxamide], the pIC50 is not below 7.00. Take `CN(C)C(C)(C)CNC(=O)c1cc(C#N)n2c(CC3CCC(F)(F)CC3)c(C(F)(F)F)nc2c1` [Compound 156, 5-Cyano-3-[(4,4-difluorocyclohexyl)methyl]-N-[2-(dimethylamino)-2-methylpropyl]-2-(trifluoromethyl)imidazo[1,2-a]pyridine-7-carboxamide]: the pIC50 is not below 7.00.

Regarding `CC(C)(CNC(=O)c1cc(C#N)n2c(CC3CCC(F)(F)CC3)c(C(F)(F)F)nc2c1)COC=O` [Compound 157, 3-(5-Cyano-3-[(4,4-difluorocyclohexyl)methyl]-2-(trifluoromethyl)imidazo[1,2-a]pyridine-7-carboxamide)-2,2-dimethylpropyl formate], the pIC50 is not below 7.00. On the same count and under the same terms, next, `CC(F)(F)c1nc2cc(C(=O)NC3CCOCC3)cc(C=O)n2c1CC1CCC(F)(F)CC1` [Compound 158, 3-[(4,4-Difluorocyclohexyl)methyl]-2-(1,1-difluoroethyl)-5-formyl-N-(tetrahydro-2H-pyran-4-yl)imidazo[1,2-a]pyridine-7-carboxamide]: not below 7.00. Consider `CC(F)(F)c1nc2cc(C(=O)NC3CCOCC3)cc(C#N)n2c1CC1CCC(F)(F)CC1` [Compound 159, 5-Cyano-3-[(4,4-difluorocyclohexyl)methyl]-2-(1,1-difluoroethyl)-N-(tetrahydro-2H-pyran-4-yl)imidazo[1,2-a]pyridine-7-carboxamide], for which the pIC50 is not below 7.00. For `CC(C)(C)C(=O)CNC(=O)c1cc(C#N)n2c(CC3CCC(F)(F)CC3)c(C(F)(F)F)nc2c1` [Compound 160, 5-Cyano-3-[(4,4-difluorocyclohexyl)methyl]-N-(3,3-dimethyl-2-oxobutyl)-2-(trifluoromethyl)imidazo[1,2-a]pyridine-7-carboxamide], the pIC50 is not below 7.00. Still for that read-out and setting: next, `CCOC(=O)C1(NC(=O)c2cc(C#N)n3c(CC4CCC(F)(F)CC4)c(C(F)(F)F)nc3c2)CC1` [Compound 161, Ethyl 1-{5-cyano-3-[(4,4-difluorocyclohexyl)methyl]-2-(trifluoromethyl)imidazo[1,2-a]pyridine-7-carboxamide}cyclopropanecarboxylate]: not below 7.00; `CC(C)(CO)NC(=O)c1cc(C#N)n2c(CC3CCC(F)(F)CC3)c(C(F)(F)F)nc2c1` [Compound 162]: not below 7.00; `Cc1c(C(=O)NC2CCOCC2)cc(C)n2c(CC3CCC(F)(F)CC3)c(C(F)(F)F)nc12` [Compound 166, 3-[(4,4-Difluorocyclohexyl)methyl]-5,8-dimethyl-N-(tetrahydro-2H-pyran-4-yl)-2-(trifluoromethyl)imidazo[1,2-a]pyridine-7-carboxamide]: not below 7.00.

The same test, now with this note: human Cav3.2-expressing KJMGER8 cells (Namalwa-derived); calcium response induced by 5 mmol/L CaCl2; 3 μmol/L mibefradil as reference; read-out: IC50 for the human Cav3.2 T-type Ca2+ current.
With `N#Cc1cc(C(=O)NC2CC3(COC3)C2)cc2nc(C(F)(F)F)c(CC3CCC(F)(F)CC3)n12` [Compound 146, 5-Cyano-3-[(4,4-difluorocyclohexyl)methyl]-N-(2-oxaspiro[3.3]heptan-6-yl)-2-(trifluoromethyl)imidazo[1,2-a]pyridine-7-carboxamide], the pIC50 was not below 7.00. For `N#Cc1cc(C(=O)NCCCN2CCCC2=O)cc2nc(C(F)(F)F)c(CC3CCC(F)(F)CC3)n12` [Compound 149, 5-Cyano-3-[(4,4-difluorocyclohexyl)methyl]-N-[3-(2-oxopyrrolidin-1-yl)propyl]-2-(trifluoromethyl)imidazo[1,2-a]pyridine-7-carboxamide], the pIC50 was not below 7.00. Regarding `N#Cc1cc(C(=O)N2CCOC2=O)cc2nc(C(F)(F)F)c(CC3CCC(F)(F)CC3)n12` [Compound 150, 3-[(4,4-Difluorocyclohexyl)methyl]-7-(2-oxoxazolidine-3-carbonyl)-2-(trifluoromethyl)imidazo[1,2-a]pyridine-5-carbonitrile], the pIC50 is not below 7.00. In the case of `Cc1cc(CNC(=O)c2cc(Cl)n3c(CC4CCC(F)(F)CC4)c(C(F)(F)F)nc3c2)[nH]n1` [Compound 152, 5-Chloro-3-[(4,4-difluorocyclohexyl)methyl]-N-[(3-methyl-1H-pyrazol-5-yl)methyl]-2-(trifluoromethyl)imidazo[1,2-a]pyridine-7-carboxamide], the pIC50 is not below 7.00. As for `Cc1cc(CNC(=O)c2cc(Cl)n3c(CC4CCC(F)(F)CC4)c(C(F)(F)F)nc3c2)no1` [Compound 154, 5-Chloro-3-[(4,4-difluorocyclohexyl)methyl]-N-[(5-methylisoxazol-3-yl)methyl]-2-(trifluoromethyl)imidazo[1,2-a]pyridine-7-carboxamide], the pIC50 was not below 7.00.

For `CC(C)(Oc1ccccc1)c1c(C(F)(F)F)nc2cc(C(=O)Nc3ccccc3)ccn12` [Compound 163, 3-(2-Phenoxypropan-2-yl)-N-phenyl-2-(trifluoromethyl)imidazo[1,2-a]pyridine-7-carboxamide], the pIC50 was not below 7.00.

The record behind these values is US9540366B2, “Ring-fused heterocyclic compound” (Kyowa Hakko Kirin Co., Ltd., priority 2012, dated 2017).
